From patent US20140256756A1, “PIPERIDINYL-SUBSTITUTED LACTAMS AS GPR119 MODULATORS” (Array BioPharma Inc., priority 2011, published 2014) come the findings set out here.

In the assay the test system is modified version of the GPR119 receptor (94% identity to human receptor). Briefly: cAMP production assay (LANCE cAMP kit, TR-FRET) in HEK-293 cells. Conditions: for cAMP production in HEK-293 cells: HEK-293 cells stably expressing modified GPR119, test compounds 0.2 nM to 10 μM, one-hour incubation; for Fold over baseline: increase in cAMP relative to basal levels, agonist activity if 1.5-fold or greater. In kind it is cell-based. The procedure: The assay utilized HEK-293 cells that stably express a modified version of the GPR119 receptor (94% identity to human receptor), under the control of a CMV promoter containing a tet-on element for tetracycline-inducible expression. GPR119 agonist-induced cyclic AMP (cAMP) production was measured in this cell line using the LANCE cAMP kit (Perkin Elmer, Waltham, Mass.). To generate a working stock of cells for the assay, cells were treated overnight with 1 μg/mL doxycycline at 37° C. in the presence of 5% CO2 to induce receptor expression. Cells were then harvested by enzymatic dissociation with 0.05% trypsin, resuspended in freezing medium (DMEM growth medium with 10% each of fetal bovine serum and DMSO), aliquoted and frozen at −80° C. On the day of the assay, frozen cells were thawed, washed 1× in PBS and resuspended in Hank's buffered salt solution (HBSS) containing 5 mM HEPES, 0.1% BSA and Alexa Fluor 647-conjugated anti-cAMP antibody (diluted 1:100). The cell suspension was then transferred to a Proxiplate Plus white 384-well assay plate (Perkin-Elmer) at 2000 cells/well. Test compounds at final concentrations ranging from 0.2 nM to 10 μM were added to the assay plate, followed by a one-hour incubation at ambient temperature (volume=10 μL/well). DMSO concentration was held constant at 0.5%. After incubation with test compounds, 10 μL, of a detergent buffer containing a biotinylated cAMP/Europium-conjugated streptavidin complex (Europium-labeled cAMP tracer) were added to each well on the assay plate, followed by a 2-hour incubation at ambient temperature. During this incubation cAMP released from lysed cells competes with the Europium-labeled cAMP tracer for binding to the Alexa Fluor 647-conjugated antibody. […] Cellular cAMP levels were then determined by interpolation of raw signal data using a cAMP standard curve. Compounds were determined to have agonist activity if they stimulated a 1.5-fold or greater increase in cAMP relative to basal levels.
(Changes in cAMP serve as a functional read-out for many G protein-coupled receptors.)

Molecules are shown by their SMILES. Where a name gives a salt, the structure may show the parent alone.

In the case of `CC(C)c1nsc(N2CCC(N3CC[C@H](Nc4ccc(S(C)(=O)=O)cc4F)C3=O)CC2)n1` [Example 1, (S)-3-(2-fluoro-4-(methylsulfonyl)phenylamino)-1-(1-(3-isopropyl-1,2,4-thiadiazol-5-yl)piperidin-4-yl)pyrrolidin-2-one], the “cAMP production in HEK-293 cells” value came out at 21.6 nmol and the Fold over baseline was 3.3.
For `CC(C)c1nsc(N2CCC(N3CC[C@@H](Nc4ccc(S(C)(=O)=O)cc4F)C3=O)CC2)n1` [Example 2, (R)-3-(2-fluoro-4-(methylsulfonyl)phenylamino)-1-(1-(3-isopropyl-1,2,4-thiadiazol-5-yl)piperidin-4-yl)pyrrolidin-2-one] the same measures were 21.9 nmol and 3.1.
As to `CCS(=O)(=O)c1ccc(N[C@H]2CCN(C3CCN(c4nc(C(C)C)ns4)CC3)C2=O)c(F)c1` [Example 3, (S)-3-(4-(ethylsulfonyl)-2-fluorophenylamino)-1-(1-(3-isopropyl-1,2,4-thiadiazol-5-yl)piperidin-4-yl)pyrrolidin-2-one], the “cAMP production in HEK-293 cells” value stood at 25.3 nmol and the Fold over baseline came out at 5.4.
Consider `CC(C)c1nsc(N2CCC(N3CC[C@H](Nc4ccc(S(=O)(=O)C5CC5)cc4F)C3=O)CC2)n1` [Example 4, (S)-3-(4-(cyclopropylsulfonyl)-2-fluorophenylamino)-1-(1-(3-isopropyl-1,2,4-thiadiazol-5-yl)piperidin-4-yl)pyrrolidin-2-one], for which the “cAMP production in HEK-293 cells” value was found to be 24.2 nmol and the Fold over baseline is listed as 4.3.
For `CC(C)c1nsc(N2CCC(N3CC[C@H](Nc4cc(F)c(S(C)(=O)=O)cc4F)C3=O)CC2)n1` [Example 5, (S)-3-(2,5-difluoro-4-(methylsulfonyl)phenylamino)-1-(1-(3-isopropyl-1,2,4-thiadiazol-5-yl)piperidin-4-yl)pyrrolidin-2-one] the same measures were 19.2 nmol and 2.7.
For `CC(C)c1nsc(N2CCC(N3CC[C@H](Nc4ccc(S(=O)(=O)CC5CC5)cc4F)C3=O)CC2)n1` [Example 6, (S)-3-(4-(cyclopropylmethylsulfonyl)-2-fluorophenylamino)-1-(1-(3-isopropyl-1,2,4-thiadiazol-5-yl)piperidin-4-yl)pyrrolidin-2-one] the same measures were 23.2 nmol and 3.2.
In the case of `CC(C)c1nsc(N2CCC(N3CC[C@@H](Nc4ccc(S(=O)(=O)C5CC5)cc4F)C3=O)CC2)n1` [Example 7, (R)-3-(4-(cyclopropylsulfonyl)-2-fluorophenylamino)-1-(1-(3-isopropyl-1,2,4-thiadiazol-5-yl)piperidin-4-yl)pyrrolidin-2-one], the “cAMP production in HEK-293 cells” value was determined as 23.8 nmol and the Fold over baseline stood at 3.4.
For `CC(C)c1nsc(N2CCC(N3CC[C@H](Nc4ccc(S(=O)(=O)C(C)C)cc4F)C3=O)CC2)n1` [Example 8, (S)-3-(2-fluoro-4-(isopropylsulfonyl)phenylamino)-1-(1-(3-isopropyl-1,2,4-thiadiazol-5-yl)piperidin-4-yl)pyrrolidin-2-one] the same measures were 37.6 nmol and 4.7.
For `CC(C)c1nsc(N2CCC(N3CC[C@H](Nc4cc(Cl)c(S(C)(=O)=O)cc4F)C3=O)CC2)n1` [Example 9, (S)-3-(5-chloro-2-fluoro-4-(methylsulfonyl)phenylamino)-1-(1-(3-isopropyl-1,2,4-thiadiazol-5-yl)piperidin-4-yl)pyrrolidin-2-one] the same measures were 16.0 nmol and 4.0.
For the compound `CC(C)c1nsc(N2CCC(N3CC[C@H](Nc4ccc(S(C)(=O)=O)cc4C#N)C3=O)CC2)n1` [Example 10, (S)-2-(1-(1-(3-isopropyl-1,2,4-thiadiazol-5-yl)piperidin-4-yl)-2-oxopyrrolidin-3-ylamino)-5-(methylsulfonyl)benzonitrile], the “cAMP production in HEK-293 cells” value is 11.3 nmol and the Fold over baseline was determined as 2.3.
For `CC(C)c1nsc(N2CCC(N3CC[C@H](Nc4ccc(S(C)(=O)=O)c(Cl)c4)C3=O)CC2)n1` [Example 11, (S)-3-(3-chloro-4-(methylsulfonyl)phenylamino)-1-(1-(3-isopropyl-1,2,4-thiadiazol-5-yl)piperidin-4-yl)pyrrolidin-2-one] the same measures were 10.8 nmol and 3.0.
For `CC(C)c1nsc(N2CCC(N3CC[C@H](Nc4ccc(S(C)(=O)=O)cc4Cl)C3=O)CC2)n1` [Example 12, (S)-3-(2-chloro-4-(methylsulfonyl)phenylamino)-1-(1-(3-isopropyl-1,2,4-thiadiazol-5-yl)piperidin-4-yl)pyrrolidin-2-one] the same measures were 17.5 nmol and 3.9.
As to `CC(C)c1nsc(N2CCC(N3CC[C@@H](Nc4ccc(S(=O)(=O)N(C)C)cc4F)C3=O)CC2)n1` [Example 13, (R)-3-fluoro-4-(1-(1-(3-isopropyl-1,2,4-thiadiazol-5-yl)piperidin-4-yl)-2-oxopyrrolidin-3-ylamino)-N,N-dimethylbenzenesulfonamide], the “cAMP production in HEK-293 cells” value came out at 25.2 nmol and the Fold over baseline is on record as 3.4.
For `CC(C)c1nsc(N2CCC(N3CC[C@H](Nc4ncc(S(C)(=O)=O)cn4)C3=O)CC2)n1` [Example 14, (S)-1-(1-(3-isopropyl-1,2,4-thiadiazol-5-yl)piperidin-4-yl)-3-(5-(methylsulfonyl)pyrimidin-2-ylamino)pyrrolidin-2-one] the same measures were 17.5 nmol and 2.8.
As for `CC(C)c1nsc(N2CCC(N3CC[C@H](Nc4ccc(Br)cn4)C3=O)CC2)n1` [Example 15, (S)-3-(5-Bromopyridin-2-ylamino)-1-(1-(3-isopropyl-1,2,4-thiadiazol-5-yl)piperidin-4-yl)pyrrolidin-2-one], the “cAMP production in HEK-293 cells” value is 11.4 nmol and the Fold over baseline is recorded as 2.7.
For `CC(C)c1nsc(N2CCC(N3CC[C@H](Nc4ccc(S(C)(=O)=O)cn4)C3=O)CC2)n1` [Example 16, (S)-1-(1-(3-isopropyl-1,2,4-thiadiazol-5-yl)piperidin-4-yl)-3-(5-(methylsulfonyl)pyridin-2-ylamino)pyrrolidin-2-one] the same measures were 27.2 nmol and 3.7.
For `Cc1cc(S(C)(=O)=O)cnc1N[C@H]1CCN(C2CCN(c3nc(C(C)C)ns3)CC2)C1=O` [Example 17, (S)-1-(1-(3-isopropyl-1,2,4-thiadiazol-5-yl)piperidin-4-yl)-3-(3-methyl-5-(methylsulfonyl)pyridin-2-ylamino)pyrrolidin-2-one] the same measures were 11.2 nmol and 2.1.
Regarding `Cc1cc(N[C@H]2CCN(C3CCN(c4nc(C(C)C)ns4)CC3)C2=O)c(F)cc1S(C)(=O)=O` [Example 18, (S)-3-(2-fluoro-5-methyl-4-(methylsulfonyl)phenylamino)-1-(1-(3-isopropyl-1,2,4-thiadiazol-5-yl)piperidin-4-yl)pyrrolidin-2-one], the “cAMP production in HEK-293 cells” value came to 20.1 nmol and the Fold over baseline came to 3.4.
As for `CCS(=O)(=O)c1ccc(NC2CCN(C3CCN(c4nc(C(C)C)ns4)CC3)C2=O)cc1C` (centres unmarked) [Example 19, 3-(4-(Ethylsulfonyl)-3-methylphenylamino)-1-(1-(3-isopropyl-1,2,4-thiadiazol-5-yl)piperidin-4-yl)pyrrolidin-2-one], the “cAMP production in HEK-293 cells” value is 16.4 nmol and the Fold over baseline is on record as 2.4.
For `CCS(=O)(=O)c1ccc(NC2CCN(C3CCN(c4nc(C(C)C)ns4)CC3)C2=O)cc1F` (centres unmarked) [Example 20, 3-(4-(ethylsulfonyl)-3-fluorophenylamino)-1-(1-(3-isopropyl-1,2,4-thiadiazol-5-yl)piperidin-4-yl)pyrrolidin-2-one] the same measures were 22.6 nmol and 3.5.
For `Cc1cc(S(C)(=O)=O)ccc1NC1CCN(C2CCN(c3nc(C(C)C)ns3)CC2)C1=O` (centres unmarked) [Example 21, 1-(1-(3-isopropyl-1,2,4-thiadiazol-5-yl)piperidin-4-yl)-3-(2-methyl-4-(methyl-sulfonyl)phenylamino) pyrrolidin-2-one] the same measures were 13.0 nmol and 3.3.
For `CC(C)Cc1nsc(N2CCC(N3CC[C@H](Nc4ccc(S(C)(=O)=O)cc4F)C3=O)CC2)n1` [Example 22, (S)-3-(2-fluoro-4-(methylsulfonyl)phenylamino)-1-(1-(3-isobutyl-1,2,4-thiadiazol-5-yl)piperidin-4-yl)pyrrolidin-2-one trifluoroacetate] the same measures were 22.1 nmol and 7.6.
